# Source: patent US20260116910A1, “POLYCYCLIC COMPOUNDS AND METHODS THEREOF” (HEPAITECH (BEIJING) BIOPHARMA TECHNOLOGY CO., LTD., priority 2021, published 2026)
# What was measured:
# [1] = target: T1, human FXR (NR1H4) (Homo sapiens, UniProt Q96RI1); assay: Human FXR (NR1H4) agonist assessment, FXRE-NanoLuc reporter in HEK293T cells; format: cell-based; conditions: FXR activation, HEK293T FXRE-NanoLuc reporter, 24 hr; for EC50: read-out: EC50
# T1 sequence (Q96RI1 1-476 isoform Q96RI1-1): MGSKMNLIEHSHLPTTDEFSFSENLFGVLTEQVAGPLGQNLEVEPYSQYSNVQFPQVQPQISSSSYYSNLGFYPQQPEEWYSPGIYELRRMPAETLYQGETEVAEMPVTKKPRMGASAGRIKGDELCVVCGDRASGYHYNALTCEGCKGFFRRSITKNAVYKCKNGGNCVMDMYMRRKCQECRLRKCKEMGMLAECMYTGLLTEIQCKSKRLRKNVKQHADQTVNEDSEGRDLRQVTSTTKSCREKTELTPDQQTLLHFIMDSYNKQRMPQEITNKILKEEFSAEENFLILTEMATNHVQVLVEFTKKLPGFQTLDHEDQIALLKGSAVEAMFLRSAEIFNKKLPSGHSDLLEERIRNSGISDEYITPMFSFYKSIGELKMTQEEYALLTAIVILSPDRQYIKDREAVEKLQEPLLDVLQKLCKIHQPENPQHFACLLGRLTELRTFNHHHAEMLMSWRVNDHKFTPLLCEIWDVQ
# Summary of the method: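 HEK293T cells stably expressing human FXR with an FXRE-NanoLuc reporter were treated with compounds for 24 hr at 37 °C, with 0.01% DMSO as negative control. Medium was read for luminescence after 5 min with coelenterazine. EC50 was fitted by sigmoid to concentration-response data.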
# [2] = target: MRGPRX4 (Homo sapiens, UniProt Q96LA9); assay: MRGPRX4 activation, Fluo-8 Ca2+ FLIPR assay in HEK293T cells stably expressing MRGPRX4; format: cell-based; set-up: key to MRGPRX4 activation, Average / MRGPRX4 activation, Ave.: fluorescence change dF/F0; conditions: for EC50: MRGPRX4 activation, Ca2+ fluorescence, no activation in tested range reported as III, read-out: Activity (EC50 μM)
# Summary of the method: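 Cells seeded overnight to >95% confluence, loaded 40-60 min at room temperature with 2 μM Fluo-8 AM, then kept in HHBS. Baseline read 30 s, compound added, signal followed 150 s more.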
# MRGPRX4, sequence (Q96LA9 whole entry): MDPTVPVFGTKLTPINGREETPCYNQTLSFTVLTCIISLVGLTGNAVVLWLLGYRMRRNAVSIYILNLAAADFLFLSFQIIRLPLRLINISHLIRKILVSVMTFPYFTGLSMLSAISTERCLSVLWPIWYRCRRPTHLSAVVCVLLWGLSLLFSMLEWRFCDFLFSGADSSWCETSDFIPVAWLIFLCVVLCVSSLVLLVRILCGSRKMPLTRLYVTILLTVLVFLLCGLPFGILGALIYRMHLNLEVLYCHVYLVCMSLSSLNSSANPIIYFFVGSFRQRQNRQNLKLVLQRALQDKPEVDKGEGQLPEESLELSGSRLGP
Structure (SMILES),"Efficacy (maximum measured induction of NanoLuc, normalized to CDCA set as 100%) [1]",EC50 [1] [µM],EC50 [2] [µM],"MRGPRX4 activation, fluorescence change (dF/F0), Average ([2]; Conc. (Log[M]) −4)","MRGPRX4 activation, fluorescence change (dF/F0), Average ([2]; Conc. (Log[M]) −4.5)","MRGPRX4 activation, fluorescence change (dF/F0), Average ([2]; Conc. (Log[M]) −5)","MRGPRX4 activation, fluorescence change (dF/F0), Average ([2]; Conc. (Log[M]) −5.5)","MRGPRX4 activation, fluorescence change (dF/F0), Average ([2]; Conc. (Log[M]) −6)","MRGPRX4 activation, fluorescence change (dF/F0), Average ([2]; Conc. (Log[M]) −7)","MRGPRX4 activation, fluorescence change (dF/F0), Average ([2]; Conc. (Log[M]) −8)","MRGPRX4 activation, fluorescence change (dF/F0), Average ([2]; Conc. (Log[M]) −9)",also measured
CC[C@H]1[C@@H](O)[C@@H]2[C@H](CC[C@]3(C)[C@@H]([C@H](C)CCNC(=O)C(=O)NS(=O)(=O)c4cc(F)cc(F)c4)CC[C@@H]23)[C@@]2(C)CCCC[C@@H]12 [8-4],B (300%<efficacy <=400%),< 1,> 100,,,,,,,,,"MRGPRX4 activation, Ave. ([2]; E3-7, Conc. (Log[M]) −4): −0.041; MRGPRX4 activation, Ave. ([2]; E3-7, Conc. (Log[M]) −4.5): −0.027; MRGPRX4 activation, Ave. ([2]; E3-7, Conc. (Log[M]) −5): −0.014; MRGPRX4 activation, Ave. ([2]; E3-7, Conc. (Log[M]) −5.5): −0.014; MRGPRX4 activation, Ave. ([2]; E3-7, Conc. (Log[M]) −6): 0.000; MRGPRX4 activation, Ave. ([2]; E3-7, Conc. (Log[M]) −7): 0.000"
CC[C@H]1[C@@H](O)[C@@H]2[C@H](CC[C@]3(C)[C@@H]([C@H](C)CCNC(=O)NS(=O)(=O)c4ccc(C(C)(C)C(=O)O)cc4)CC[C@@H]23)[C@@]2(C)CCCC[C@@H]12 [5-10],C (100%<efficacy <=300%),< 1,> 100,0.090,0.043,0.013,0.017,0.020,0.030,,,
CC[C@H]1[C@@H](O)[C@@H]2[C@H](CC[C@]3(C)[C@@H]([C@H](C)CCNC(=O)NS(=O)(=O)c4ccc(N5CCCCC5)nc4)CC[C@@H]23)[C@@]2(C)CCCC[C@@H]12 [5-30],A (efficacy >400%),< 1,> 100,,,,,,,,,"MRGPRX4 activation, Average ([2]; E3-9, Conc. (Log[M]) −4.0): 0.014; MRGPRX4 activation, Average ([2]; E3-9, Conc. (Log[M]) −4.5): 0.018; MRGPRX4 activation, Average ([2]; E3-9, Conc. (Log[M]) −5.0): 0.014; MRGPRX4 activation, Average ([2]; E3-9, Conc. (Log[M]) −5.4): 0.027; MRGPRX4 activation, Average ([2]; E3-9, Conc. (Log[M]) −5.9): 0.018; MRGPRX4 activation, Average ([2]; E3-9, Conc. (Log[M]) −6.4): 0.023; MRGPRX4 activation, Average ([2]; E3-9, Conc. (Log[M]) −6.9): 0.021; MRGPRX4 activation, Average ([2]; E3-9, Conc. (Log[M]) −7.3): 0.025; MRGPRX4 activation, Average ([2]; E3-9, Conc. (Log[M]) −7.8): 0.018; MRGPRX4 activation, Average ([2]; E3-9, Conc. (Log[M]) −8.3): 0.028"
CC[C@H]1[C@@H](OC(=O)c2cccc(I)c2)[C@@H]2[C@H](CC[C@]3(C)C([C@H](C)CCC(=O)OC)=CC[C@@H]23)[C@@]2(C)CCCC[C@@H]12 [3-1],C (100%<efficacy <=300%),1 to 10,> 100,0.008,0.004,−0.027,−0.004,−0.017,0.005,0.001,−0.001,
CC[C@H]1[C@@H](O)[C@@H]2[C@H](CC[C@]3(C)[C@@H]([C@H](C)CCC(=O)NS(=O)(=O)CC)CC[C@@H]23)[C@@]2(C)CCCC[C@@H]12 [4-2],B (300%<efficacy <=400%),< 1,> 100,0.113,−0.013,−0.006,0.015,−0.006,0.009,0.009,0.002,
